The subject of assay [1] is ISC-enriched organoids. The experiment in a line: Primary screen, 384-well 2.5-D organoid differentiation (ENR+CD, 6 days): carbachol-induced lysozyme secretion (LYZ.S). Type of assay: cell-based, murine. To be noted: primary screen, FC vs plate median. The text has this:
(§1) High-throughput screening.

Assay [2] deals with ISC-enriched organoids. Briefly: Primary screen, 384-well 2.5-D organoid differentiation (ENR+CD, 6 days): basal lysozyme secretion (LYZ.NS). To be noted: for Dose.FC.LYZ.NS: primary screen, FC vs plate median; for Z.LYZ.NS: standard z score of FC. Type of assay: cell-based, murine.
Excerpt: as §1

For assay [3], the system named is ISC-enriched organoids. Briefly: Primary screen, 384-well 2.5-D organoid differentiation (ENR+CD, 6 days, Target Selective Inhibitor Library, vs whole-plate median): ATP (CellTiter-Glo 3D, CTG). To be noted: for Dose.FC.CTG: primary screen, FC vs plate median; for Z.CTG: standard z score of FC.

On to `Cc1ccc(S(=O)(=O)c2ccc([N+](=O)[O-])o2)cc1` [NSC697923], for which the Dose.FC.LYZ.S in assay [1] (Dose 0.08 uM) is 0.036 log 2 fold change; in assay [1] (Dose 0.40 uM), 0.108 log 2 fold change; in assay [1] (Dose 2.00 uM), −0.154 log 2 fold change; in assay [1] (Dose 10.00 uM) it was −0.270 log 2 fold change. The Dose.FC.LYZ.NS in assay [2] (Dose 0.08 uM) was 0.091 log 2 fold change; in assay [2] (Dose 0.40 uM), 0.051 log 2 fold change; in assay [2] (Dose 2.00 uM), −0.104 log 2 fold change; in assay [2] (Dose 10.00 uM), −0.154 log 2 fold change. In addition, the Z.LYZ.NS in assay [2] (Dose 0.08 uM) was 0.789; in assay [2] (Dose 0.40 uM) it was 0.441; in assay [2] (Dose 2.00 uM), −0.906; in assay [2] (Dose 10.00 uM) it was −1.338. Besides, the Dose.FC.CTG in assay [3] (Dose 0.08 uM) is −0.052 log 2 fold change; in assay [3] (Dose 0.40 uM) it was −0.014 log 2 fold change; in assay [3] (Dose 2.00 uM) it was −0.101 log 2 fold change; in assay [3] (Dose 10.00 uM), −0.782 log 2 fold change. The Z.CTG in assay [3] (Dose 0.08 uM) is −0.123; in assay [3] (Dose 0.40 uM), −0.033; in assay [3] (Dose 2.00 uM), −0.241; in assay [3] (Dose 10.00 uM), −1.867.
Consider `CCN(CC)CCCC(C)Nc1nc(C)cc(Nc2ccc3nc(C)cc(N)c3c2)n1` (stereo not shown) [NSC 23766], for which the Dose.FC.LYZ.S was determined as 0.080 log 2 fold change in assay [1] (Dose 0.08 uM), 0.090 log 2 fold change in assay [1] (Dose 0.40 uM), 0.031 log 2 fold change in assay [1] (Dose 2.00 uM) and 0.030 log 2 fold change in assay [1] (Dose 10.00 uM). In addition, the Dose.FC.LYZ.NS in assay [2] (Dose 0.08 uM) was 0.081 log 2 fold change; in assay [2] (Dose 0.40 uM), 0.044 log 2 fold change; in assay [2] (Dose 2.00 uM) it was 0.058 log 2 fold change; in assay [2] (Dose 10.00 uM), 0.009 log 2 fold change. The Z.LYZ.NS stood at 0.701 in assay [2] (Dose 0.08 uM), 0.380 in assay [2] (Dose 0.40 uM), 0.506 in assay [2] (Dose 2.00 uM) and 0.080 in assay [2] (Dose 10.00 uM). In addition, the Dose.FC.CTG in assay [3] (Dose 0.08 uM) was 0.043 log 2 fold change; in assay [3] (Dose 0.40 uM), 0.170 log 2 fold change; in assay [3] (Dose 2.00 uM), 0.117 log 2 fold change; in assay [3] (Dose 10.00 uM), 0.324 log 2 fold change. In addition, the Z.CTG in assay [3] (Dose 0.08 uM) is listed as 0.103; in assay [3] (Dose 0.40 uM) it was 0.406; in assay [3] (Dose 2.00 uM), 0.279; in assay [3] (Dose 10.00 uM) it was 0.774.
`C/C(=N\NC(=S)N1CCC1)c1ccccn1` [NSC 319726]: the Dose.FC.LYZ.S in assay [1] (Dose 0.08 uM) is 0.060 log 2 fold change; in assay [1] (Dose 0.40 uM) it was −0.035 log 2 fold change; in assay [1] (Dose 2.00 uM), −0.248 log 2 fold change; in assay [1] (Dose 10.00 uM) it was −0.327 log 2 fold change. Moreover, the Dose.FC.LYZ.NS in assay [2] (Dose 0.08 uM) is listed as 0.113 log 2 fold change; in assay [2] (Dose 0.40 uM) it was −0.090 log 2 fold change; in assay [2] (Dose 2.00 uM), −0.152 log 2 fold change; in assay [2] (Dose 10.00 uM) it was −0.229 log 2 fold change. Moreover, the Z.LYZ.NS in assay [2] (Dose 0.08 uM) was 0.982; in assay [2] (Dose 0.40 uM), −0.780; in assay [2] (Dose 2.00 uM) it was −1.323; in assay [2] (Dose 10.00 uM), −1.992. Moreover, the Dose.FC.CTG in assay [3] (Dose 0.08 uM) is recorded as 0.132 log 2 fold change; in assay [3] (Dose 0.40 uM) it was −0.185 log 2 fold change; in assay [3] (Dose 2.00 uM), −0.447 log 2 fold change; in assay [3] (Dose 10.00 uM), −1.907 log 2 fold change. Moreover, the Z.CTG in assay [3] (Dose 0.08 uM) is reported as 0.316; in assay [3] (Dose 0.40 uM) it was −0.441; in assay [3] (Dose 2.00 uM), −1.068; in assay [3] (Dose 10.00 uM) it was −4.555.
For the compound `CCCC(C)NC(=O)c1ccc(Cl)c(Cl)c1` (stereo not shown) [NSC 405020], the Dose.FC.LYZ.S in assay [1] (Dose 0.08 uM) was 0.014 log 2 fold change; in assay [1] (Dose 0.40 uM) it was 0.093 log 2 fold change; in assay [1] (Dose 2.00 uM), 0.002 log 2 fold change; in assay [1] (Dose 10.00 uM) it was −0.061 log 2 fold change. The Dose.FC.LYZ.NS is 0.008 log 2 fold change in assay [2] (Dose 0.08 uM), −0.028 log 2 fold change in assay [2] (Dose 0.40 uM), 0.018 log 2 fold change in assay [2] (Dose 2.00 uM) and −0.065 log 2 fold change in assay [2] (Dose 10.00 uM). In addition, the Z.LYZ.NS in assay [2] (Dose 0.08 uM) is reported as 0.071; in assay [2] (Dose 0.40 uM), −0.246; in assay [2] (Dose 2.00 uM), 0.160; in assay [2] (Dose 10.00 uM), −0.570. Moreover, the Dose.FC.CTG is listed as −0.059 log 2 fold change in assay [3] (Dose 0.08 uM), −0.071 log 2 fold change in assay [3] (Dose 0.40 uM), −0.059 log 2 fold change in assay [3] (Dose 2.00 uM) and −0.058 log 2 fold change in assay [3] (Dose 10.00 uM). Besides, the Z.CTG in assay [3] (Dose 0.08 uM) is −0.140; in assay [3] (Dose 0.40 uM), −0.170; in assay [3] (Dose 2.00 uM) it was −0.141; in assay [3] (Dose 10.00 uM) it was −0.138.
Turning to `O=c1cc(N2CCOCC2)oc2c1ccc1ccccc12` [NU7026], the Dose.FC.LYZ.S is 0.021 log 2 fold change in assay [1] (Dose 0.08 uM), 0.034 log 2 fold change in assay [1] (Dose 0.40 uM), −0.056 log 2 fold change in assay [1] (Dose 2.00 uM) and −0.198 log 2 fold change in assay [1] (Dose 10.00 uM). Further, the Dose.FC.LYZ.NS in assay [2] (Dose 0.08 uM) is recorded as 0.023 log 2 fold change; in assay [2] (Dose 0.40 uM), 0.023 log 2 fold change; in assay [2] (Dose 2.00 uM), −0.058 log 2 fold change; in assay [2] (Dose 10.00 uM), −0.158 log 2 fold change. In addition, the Z.LYZ.NS in assay [2] (Dose 0.08 uM) is on record as 0.198; in assay [2] (Dose 0.40 uM), 0.198; in assay [2] (Dose 2.00 uM), −0.507; in assay [2] (Dose 10.00 uM), −1.380. Further, the Dose.FC.CTG was 0.096 log 2 fold change in assay [3] (Dose 0.08 uM), 0.104 log 2 fold change in assay [3] (Dose 0.40 uM), 0.107 log 2 fold change in assay [3] (Dose 2.00 uM) and −0.119 log 2 fold change in assay [3] (Dose 10.00 uM). Further, the Z.CTG in assay [3] (Dose 0.08 uM) is on record as 0.230; in assay [3] (Dose 0.40 uM) it was 0.248; in assay [3] (Dose 2.00 uM), 0.255; in assay [3] (Dose 10.00 uM), −0.284.
In the case of `Nc1ncnc2c1c(-c1cccc(OCc3ccccc3)c1)cn2C1CC(CN2CCCC2)C1` (stereo not shown) [NVP-ADW742], the Dose.FC.LYZ.S is on record as 0.245 log 2 fold change in assay [1] (Dose 0.08 uM), 0.265 log 2 fold change in assay [1] (Dose 0.40 uM), −0.166 log 2 fold change in assay [1] (Dose 2.00 uM) and −0.210 log 2 fold change in assay [1] (Dose 10.00 uM). Also, the Dose.FC.LYZ.NS in assay [2] (Dose 0.08 uM) is on record as 0.142 log 2 fold change; in assay [2] (Dose 0.40 uM), 0.172 log 2 fold change; in assay [2] (Dose 2.00 uM) it was −0.095 log 2 fold change; in assay [2] (Dose 10.00 uM) it was −0.135 log 2 fold change. In addition, the Z.LYZ.NS in assay [2] (Dose 0.08 uM) is 1.239; in assay [2] (Dose 0.40 uM), 1.499; in assay [2] (Dose 2.00 uM), −0.823; in assay [2] (Dose 10.00 uM), −1.172. For the same compound, the Dose.FC.CTG is reported as 0.679 log 2 fold change in assay [3] (Dose 0.08 uM), 0.663 log 2 fold change in assay [3] (Dose 0.40 uM), 0.257 log 2 fold change in assay [3] (Dose 2.00 uM) and −0.465 log 2 fold change in assay [3] (Dose 10.00 uM). Also, the Z.CTG in assay [3] (Dose 0.08 uM) is on record as 1.622; in assay [3] (Dose 0.40 uM), 1.583; in assay [3] (Dose 2.00 uM), 0.614; in assay [3] (Dose 10.00 uM) it was −1.112.
With `CN1C(=O)C(Cc2c[nH]c3ccccc23)NC1=S` (stereo not shown) [Necrostatin-1], the Dose.FC.LYZ.S in assay [1] (Dose 0.08 uM) amounted to 0.077 log 2 fold change; in assay [1] (Dose 0.40 uM), 0.038 log 2 fold change; in assay [1] (Dose 2.00 uM) it was 0.092 log 2 fold change; in assay [1] (Dose 10.00 uM) it was 0.229 log 2 fold change. The Dose.FC.LYZ.NS in assay [2] (Dose 0.08 uM) stood at 0.060 log 2 fold change; in assay [2] (Dose 0.40 uM), 0.020 log 2 fold change; in assay [2] (Dose 2.00 uM), 0.154 log 2 fold change; in assay [2] (Dose 10.00 uM), 0.057 log 2 fold change. Besides, the Z.LYZ.NS in assay [2] (Dose 0.08 uM) stood at 0.524; in assay [2] (Dose 0.40 uM) it was 0.174; in assay [2] (Dose 2.00 uM), 1.338; in assay [2] (Dose 10.00 uM), 0.496. Further, the Dose.FC.CTG was determined as 0.102 log 2 fold change in assay [3] (Dose 0.08 uM), 0.168 log 2 fold change in assay [3] (Dose 0.40 uM), 0.011 log 2 fold change in assay [3] (Dose 2.00 uM) and 0.137 log 2 fold change in assay [3] (Dose 10.00 uM). For the same compound, the Z.CTG in assay [3] (Dose 0.08 uM) was 0.244; in assay [3] (Dose 0.40 uM), 0.401; in assay [3] (Dose 2.00 uM) it was 0.027; in assay [3] (Dose 10.00 uM), 0.328.
Regarding `C#Cc1cccc(Nc2ncnc3cc(OCCOC)c(OCCO)cc23)c1` [OSI-420], the Dose.FC.LYZ.S in assay [1] (Dose 0.08 uM) was 0.059 log 2 fold change; in assay [1] (Dose 0.40 uM), −0.221 log 2 fold change; in assay [1] (Dose 2.00 uM) it was −0.381 log 2 fold change; in assay [1] (Dose 10.00 uM), −0.374 log 2 fold change. The Dose.FC.LYZ.NS in assay [2] (Dose 0.08 uM) was 0.115 log 2 fold change; in assay [2] (Dose 0.40 uM) it was −0.224 log 2 fold change; in assay [2] (Dose 2.00 uM) it was −0.287 log 2 fold change; in assay [2] (Dose 10.00 uM), −0.325 log 2 fold change. In addition, the Z.LYZ.NS is 1.002 in assay [2] (Dose 0.08 uM), −1.948 in assay [2] (Dose 0.40 uM), −2.498 in assay [2] (Dose 2.00 uM) and −2.833 in assay [2] (Dose 10.00 uM). Besides, the Dose.FC.CTG in assay [3] (Dose 0.08 uM) is 0.106 log 2 fold change; in assay [3] (Dose 0.40 uM) it was −0.130 log 2 fold change; in assay [3] (Dose 2.00 uM) it was −1.263 log 2 fold change; in assay [3] (Dose 10.00 uM) it was −1.100 log 2 fold change. Further, the Z.CTG in assay [3] (Dose 0.08 uM) is 0.254; in assay [3] (Dose 0.40 uM), −0.311; in assay [3] (Dose 2.00 uM), −3.016; in assay [3] (Dose 10.00 uM), −2.627.
